Assay results taken from patent US20120270929A1, “MODULATION OF TTC39 EXPRESSION TO INCREASE HDL” (ISIS Pharmaceuticals, Inc., priority 2009, published 2012).
Oligonucleotides are written 5' to 3', each unit as a sugar letter and its base; * is a phosphorothioate linkage, no mark a phosphodiester; rarer units and linkages stand in square brackets, end groups in braces. Plain capitals give the bases only. e = 2'-O-(2-methoxyethyl) (MOE); [5mC] = 5-methylcytosine; d = 2'-deoxy (DNA)

Columns and labels:
murine TTC39A mRNA [1] = assay: Antisense inhibition of mouse TTC39A in b.END cells, single dose; type: cell-based; settings: 70 nM, cytofectin, ~24 h, vs untreated control
Protocol: Antisense oligonucleotides were designed targeting a TTC39A nucleic acid and were tested for their effects on TTC39A mRNA in vitro. Cultured b.END cells at a density of 4,000 cells per well were transfected using cytofectin reagent with 70 nM antisense oligonucleotide. After a treatment period of approximately 24 hours, RNA was isolated from the cells and TTC39A mRNA levels were measured by quantitative real-time PCR. Mouse primer probe set RTS3262 (forward sequence TGTGCGTCATGCTGTTGCT, designated herein as SEQ ID NO: 113; reverse sequence […], designated herein as SEQ ID NO: 114; probe sequence […], designated herein as SEQ ID NO: 115). TTC39A mRNA levels were adjusted according to total RNA content, as measured by RIBOGREEN®. Results are presented as percent inhibition of TTC39A, relative to untreated control cells.
The chimeric antisense oligonucleotides targeting TTC39A were designed as 5-10-5 MOE gapmers. The gapmers are 20 nucleotides in length, wherein the central gap segment is comprised of ten 2′-deoxynucleotides and is flanked on both sides (in the 5′ and 3′ directions) by wings comprising five nucleotides each. Each nucleotide in the 5′ wing segment and each nucleotide in the 3′ wing segment has a 2′-MOE modification. The internucleoside linkages throughout each gapmer are phosphorothioate (P═S) linkages. All cytosine residues throughout each gapmer are 5-methylcytosines. “Mouse Target start site” indicates the 5′-most nucleotide to which the gapmer is targeted in a mouse nucleic acid sequence.

murine TTC39A mRNA [2] = assay: Dose-dependent antisense inhibition of murine TTC39A in b.END cells; type: cell-based, mouse; settings: ~16 h; for IC50: cytofectin
Protocol: Cells were plated at a density of 3,500 cells per well and transfected using cytofectin reagent with 4.375 nM, 8.75 nM, 17.5 nM, 35 nM, 70 nM, and 140 nM concentrations of antisense oligonucleotide, as specified in Table 28. After a treatment period of approximately 16 hours, RNA was isolated from the cells and TTC39A mRNA levels were measured by quantitative real-time PCR. Murine primer probe set RTS3262 was used to measure mRNA levels. TTC39A mRNA levels were adjusted according to total RNA content, as measured by RIBOGREEN®. Results are presented as percent inhibition of TTC39A, relative to untreated control cells.

Row | Sequence | % inhibition of murine TTC39A mRNA (murine TTC39A mRNA [1]) [%] | percent inhibition of TTC39A mRNA (murine TTC39A mRNA [2]; 4.375 nM) [%] | percent inhibition of TTC39A mRNA (murine TTC39A mRNA [2]; 8.75 nM) [%] | percent inhibition of TTC39A mRNA (murine TTC39A mRNA [2]; 17.5 nM) [%] | percent inhibition of TTC39A mRNA (murine TTC39A mRNA [2]; 35.0 nM) [%] | percent inhibition of TTC39A mRNA (murine TTC39A mRNA [2]; 70.0 nM) [%] | percent inhibition of TTC39A mRNA (murine TTC39A mRNA [2]; 140.0 nM) [%] | IC50 (murine TTC39A mRNA [2]) [nM]
1 | GCATGTAGAGAACTTCCAGG (eG*e[5mC]*eA*eT*eG*dT*dA*dG*dA*dG*dA*dA*d[5mC]*dT*dT*e[5mC]*e[5mC]*eA*eG*eG; antisense) [ISIS 474382] | 95 | 0 | 10 | 24 | 41 | 68 | 80 | 42
2 | GCCTCAGAATCCTGGTGGGA (eG*e[5mC]*e[5mC]*eT*e[5mC]*dA*dG*dA*dA*dT*d[5mC]*d[5mC]*dT*dG*dG*eT*eG*eG*eG*eA; antisense) [ISIS 474437] | 94 | 5 | 6 | 26 | 36 | 62 | 82 | 49
3 | TCCATGGAGTAGTTCTTGTA (eT*e[5mC]*e[5mC]*eA*eT*dG*dG*dA*dG*dT*dA*dG*dT*dT*d[5mC]*eT*eT*eG*eT*eA; antisense) [ISIS 474452] | 92 | 0 | 9 | 36 | 46 | 61 | 86 | 41
4 | TCCTTGCTCAGCAGGTCGGC (eT*e[5mC]*e[5mC]*eT*eT*dG*d[5mC]*dT*d[5mC]*dA*dG*d[5mC]*dA*dG*dG*eT*e[5mC]*eG*eG*e[5mC]; antisense) [ISIS 474366] | 93 | 0 | 0 | 23 | 45 | 64 | 80 | 43
5 | TCGGTGCCTCTGACACAGCG (eT*e[5mC]*eG*eG*eT*dG*d[5mC]*d[5mC]*dT*d[5mC]*dT*dG*dA*d[5mC]*dA*e[5mC]*eA*eG*e[5mC]*eG; antisense) [ISIS 474474] | 97 | 0 | 5 | 27 | 56 | 72 | 87 | 33
6 | TGCACTGGTCCAGGGCCTCA (eT*eG*e[5mC]*eA*e[5mC]*dT*dG*dG*dT*d[5mC]*d[5mC]*dA*dG*dG*dG*e[5mC]*e[5mC]*eT*e[5mC]*eA; antisense) [ISIS 474351] | 94 | 6 | 0 | 8 | 48 | 66 | 84 | 44
